{
  "source": "paper PMC5730604",
  "key": {"[1]": {"target": "immobilized integrin α3β1 (VLA-3) (Homo sapiens, UniProt P26006)", "assay": "biochemical", "procedure": "Single cycle kinetic experiments were conducted on a Biacore 3000 system using a CM5 sensor chip at 25 and 37 °C with a flow rate of 10 µl/min. After coupling of the VLA-3 receptor (R&D Systems) via standard EDC/NHS immobilization chemistry (7 min activation with EDC/NHS followed by a 7 min flush with VLA-3) in 10 mM NaOAc buffer at pH 6 containing 1 mM MnCl2, a […] solution of ethanolamine was injected for 7 min to block all amine reactive sites. Subsequently the analyte was flushed over the chip surface at a flow rate of 10 µl/min in HEPES buffered saline supplemented with 1 mM MnCl2."}, "HT-29 cells": {"target": "HT-29 cells (Homo sapiens, UniProt P26006)", "sequence (P26006 33-1051)": "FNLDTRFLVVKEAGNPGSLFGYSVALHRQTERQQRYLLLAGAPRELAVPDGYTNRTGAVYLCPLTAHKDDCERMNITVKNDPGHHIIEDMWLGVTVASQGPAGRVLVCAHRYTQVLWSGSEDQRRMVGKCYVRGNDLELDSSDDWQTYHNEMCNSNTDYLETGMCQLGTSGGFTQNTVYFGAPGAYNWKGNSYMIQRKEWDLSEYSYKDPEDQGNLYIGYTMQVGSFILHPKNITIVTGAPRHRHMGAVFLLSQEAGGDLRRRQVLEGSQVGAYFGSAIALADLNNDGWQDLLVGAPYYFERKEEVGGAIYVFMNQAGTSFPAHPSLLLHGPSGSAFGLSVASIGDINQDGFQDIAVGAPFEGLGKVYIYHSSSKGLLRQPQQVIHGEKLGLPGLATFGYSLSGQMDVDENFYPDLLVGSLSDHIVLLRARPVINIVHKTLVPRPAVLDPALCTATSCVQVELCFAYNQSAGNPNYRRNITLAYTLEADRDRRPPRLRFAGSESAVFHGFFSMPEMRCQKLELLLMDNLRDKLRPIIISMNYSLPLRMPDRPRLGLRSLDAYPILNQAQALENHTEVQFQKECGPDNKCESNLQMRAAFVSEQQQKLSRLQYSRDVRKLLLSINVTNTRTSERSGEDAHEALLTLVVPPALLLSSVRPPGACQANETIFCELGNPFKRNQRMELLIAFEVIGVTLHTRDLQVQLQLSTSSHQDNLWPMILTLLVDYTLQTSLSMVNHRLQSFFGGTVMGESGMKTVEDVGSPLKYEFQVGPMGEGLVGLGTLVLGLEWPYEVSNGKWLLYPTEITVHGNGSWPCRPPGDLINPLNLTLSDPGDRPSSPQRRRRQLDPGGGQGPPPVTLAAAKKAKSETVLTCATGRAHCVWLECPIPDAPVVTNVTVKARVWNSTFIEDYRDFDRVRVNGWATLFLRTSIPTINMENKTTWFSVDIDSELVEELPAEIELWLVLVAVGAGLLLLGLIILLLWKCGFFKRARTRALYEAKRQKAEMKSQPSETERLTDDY", "sequence (P05556 21-798 partner)": "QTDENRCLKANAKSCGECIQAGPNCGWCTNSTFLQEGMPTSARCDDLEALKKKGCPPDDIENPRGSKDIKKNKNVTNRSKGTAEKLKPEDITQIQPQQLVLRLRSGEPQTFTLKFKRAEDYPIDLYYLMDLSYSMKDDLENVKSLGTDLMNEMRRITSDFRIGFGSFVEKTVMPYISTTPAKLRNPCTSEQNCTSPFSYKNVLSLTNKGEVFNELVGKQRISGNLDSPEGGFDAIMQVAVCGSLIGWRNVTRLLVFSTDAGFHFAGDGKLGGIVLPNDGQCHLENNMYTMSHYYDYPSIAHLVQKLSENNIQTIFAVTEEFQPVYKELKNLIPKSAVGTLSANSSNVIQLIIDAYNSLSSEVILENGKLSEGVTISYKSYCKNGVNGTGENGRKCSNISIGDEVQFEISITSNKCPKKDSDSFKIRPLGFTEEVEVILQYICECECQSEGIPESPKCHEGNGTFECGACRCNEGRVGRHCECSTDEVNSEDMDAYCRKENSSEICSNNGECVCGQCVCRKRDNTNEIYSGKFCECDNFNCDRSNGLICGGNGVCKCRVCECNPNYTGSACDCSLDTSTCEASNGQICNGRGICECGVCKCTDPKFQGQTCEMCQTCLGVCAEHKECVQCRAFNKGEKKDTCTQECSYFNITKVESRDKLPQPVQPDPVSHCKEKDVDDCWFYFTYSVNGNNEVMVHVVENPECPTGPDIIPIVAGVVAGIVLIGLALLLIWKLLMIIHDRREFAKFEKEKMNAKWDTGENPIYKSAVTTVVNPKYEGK", "assay": "Competition with 200 nM B9-Biotin (flow cytometry)", "assay_type": "binding"}, "GPC-16 tumor cells": {"system": "GPC-16 tumor cells", "assay": "GPC-16 tumor model in guinea pigs", "assay_type": "in vivo, Guinea pig", "procedure": "by incubation with a 1:50 dilution of the secondary antibody (biotinylated goat -ant i-r at Ig G, BD Pharmingen, #554014 ). After incubation with horseradish peroxidase (HRP) coupled streptavidin color development was performed using the DAB substrate kit. All immunohistochemical stained tissue sections were counterstained using haemalaun or […]\nAssessment of anti-tumor efficacy in the GPC -16 tumor model in guinea pig GPC-16 cells (guinea pig colorectal adenocarcinoma) were acquired from LGC and were cultured in Eagle’s minimum essential medium with 10% FCS and 100 U/ml Penicillin and 100 µg/ml Streptomycin. For each experiment 10 f emale guinea pigs (8- 10 weeks old) per group were immunosuppressed with an intraperitoneal injection of 200 mg/kg cyclophosphamide (CPA) one day bef ore the tumor inoculation and repeated every 7- 10 days for 4 week s. Efficacy of the CPA treatment was verif ied by routine blood analysis bef ore f irst CPA treatment and on a week ly basis thereafter. For the evaluation of the anti-tumor efficacy of the Y9 the 10 animals were divided into two groups of 5 animals. […] The presence of tumors in the sk in sections was evaluated by a board certif ied veterinarian pathologist using a scoring system. […]\nT o study whether a repeated subcutaneous dosing of Y9 has any local or systemic toxic effects on animals, the following dose escalation study was performed. […] B ody weig ht and general health observations were evaluated on a daily basis. […] Organs (sk in, brain, heart, k idney, liver, lung, ovaries/testis, spleen, local and distal lymph nodes, mesentery, small intestine, stomach, pancreas) were isolated af ter euthanasia with an isof lurane overdose for histopathology and body weight-normalized organ weights (brain, kidney, heart, liver, spleen) were calculated.\nW eights of the carcass, brain, heart, kidney, liver and spleen were determined and body weight-normalized organ weight in % was calculated as follows: […]"}, "Balb/c mice": {"system": "Balb/c mice", "assay": "Dose escalation study and acute toxicity", "assay_type": "in vivo, Mouse", "procedure": "Dose escalation study and evaluation of acute toxicity in mice\nT o study whether a repeated subcutaneous dosing of Y9 has any local or systemic toxic effects on animals, the following dose escalation study was performed. Groups of 5 Balb/c mice were inoculated subcutaneously with 100 µl of 0.9 % saline (NaCl) solution containing either 200 nmol, 400 nmol or 800 nmol Y9 . Two control groups (a total of 10 mice) received only 0.9% saline. T he injections were repeated every other day f or a total of seven injections. B ody weig ht and general health observations were evaluated on a daily basis. At day 4 after the last inoculation of the solutions blood was collected under isof lurane anesthesia f or hematology and f or serum analysis by retro- orbital puncture. Organs (sk in, brain, heart, k idney, liver, lung, ovaries/testis, spleen, local and distal lymph nodes, mesentery, small intestine, stomach, pancreas) were isolated af ter euthanasia with an isof lurane overdose for histopathology and body weight-normalized organ weights (brain, kidney, heart, liver, spleen) were calculated.\nW eights of the carcass, brain, heart, kidney, liver and spleen were determined and body weight-normalized organ weight in % was calculated as follows:\nBody weight-normalized organ weight [%] = organ weight [g] x 100 […]\nThe following serum parameters were analyzed with the Vitros 250 (Johnson&Johnson) machine measuring parameters at 25°C: […] (CK), alk aline Phosphatase (ALP), Amylase, GOT/AST, GPT/ALT, GGT, LDH, Lipase, total protein (TP), Glucose (GLU), Cholesterol (CHOL), Triglyceride (TRIG), blood urea nitrogen (BUN), Creatinine (CREA), total bilirubin (TBIL), inorganic Phosphorus (PHOS), Sodium (Na), Potassium (K), Calcium (Ca), […]\n(MCHC), banded neutrophils, segmented neutrophils, lymphocytes (Lymphs), monocytes (Monos), eosinophils (EOS), basophils (BASO). The organ sections were histopathological […]\npathological abnormalities f ound. […]\nglycerin (f inal concentration 227 µg/ml). […]\non a nitrocellulose membrane. For calibration, control serum was spiked with Y9 in […]\nThe membrane was washed 3\nThe membrane was f inally washed 3 times in […]\nquantitated using Image J software. The calibration samples were used to prepare a linear […]\nvalues of < 0.05 were considered signif icant."}, "[2]": {"details": "fresh mouse serum, 60 µM, extraction and RP-HPLC (C4) quantification at 214 and 375 nm", "method": "(§1) vor t exing the sample was incubated f or 48 h. At specif ic time points, the solution was again\n(§2) vortexed, a sample (95 µl) was withdra wn and subjected to ultraf iltration (Vivaspin 500, 10 k Da\n(§3) cutoff; 15 min, 16,000 g). The f iltrate was put on ice while the f ilter remainder was mixed with\n(§4) an equal volume of ethanol (95%), vortexed and centrifuged (5 min, 16.000 g). W ith the\n(§5) resulting supernatant, this procedure was repeated. The f inal supernatant was mixed with an\n(§6) equal volume of f iltrate, shock frozen in liq uid nitr og en and stored at - 80 °C until analysis. RP -\n(§7) HPLC analysis was performed using an analytical C4- RP column with a gradient of 5-65%\n(§8) absorption at 214 and 375 nm (specif ic absorption maximum of the nitro-tyrosine building block\nThe absorption peak observed at the"}, "[3]": {"details": "mice, local s.c. injection of 200 or 500 nmol, dot-blot, detection limit ~1 nM", "method": "(§9) according to standard procedures. From 20 ml antiserum, 1.5 mg purified antibody were\n(§10) isolated and stored in aliquots at -20 °C in PBS + 0.01% thimerosal, 0.1% BSA diluted 1:1 with\n(§11) concentrations between 0.5 nM and 20 nM and s amples were also spotted in triplicates. After\n(§12) drying, the membrane was soaked in TBST (150 mM NaCl, 50 mM Tris-HCl, pH 7.4, 0.05%\n(§13) tween), blocked for 1 h at RT with 5% nonfat dry milk in TBST. The membrane was washed 3\n(§14) 1:2000 in TBST, washed 3 times, incubated 1 h at RT with anti-rabbit-HRP (GE Healthcare)\n(§15) diluted 1:5,000 in 5% nonf at dry milk in TBST. The membrane was f inally washed 3 times in\n(§16) TBST and then incubated with ECL prime substrate (GE Healthcare). Chemiluminescent\n(§17) signals were recorded in an LAS-4000 mini Image reader (Fuji). Spot intensities were\n(§18) For the statistical analysis, mean (M) and standard deviation (SD) were calculated. T he\n(§19) statistical analysis was p erf ormed with the GraphPad Prism Software, Version 5.0 (Graph Pad,"}, "in vivo": {"assay": "in vivo", "details": "mouse, serum, sc", "method": "as §9, §10, §11, §12, §13, §14, §15, §16, §17, §18, §19"}, "in vitro": {"assay": "in vitro", "details": "mouse, fresh mouse serum", "method": "as §1, §2, §3, §4, §5, §6, §7, §8\nThe absorption peak observed at the"}, "[4]": {"details": "Balb/c mice, s.c. 200, 400 or 800 nmol every two days for 14 days"}, "[5]": {"details": "highest dose 800 nmol (printed 800 nm), repeated s.c., day 4 after last dose"}},
  "note": "Positions of bridges follow the written chain, without caps; N, C: chain ends. Non-standard residues stand in square brackets, D forms with d. Residues, ends and D or L forms follow the SMILES beside them. Chains are numbered I, II in the order given. *: point of attachment. PEG28 = NCCOCCOCCOCCOCCOCCOCCOCCOCCOCCOCCOCCOCCOCCOCCOCCOCCOCCOCCOCCOCCOCCOCCOCCOCCOCCOCCOCCOCCC(=O)O; Tyr(3-NO2) = N[C@@H](Cc1ccc(O)c([N+](=O)[O-])c1)C(=O)O; Hyp = O=C(O)[C@@H]1C[C@@H](O)CN1; For = O=C*",
  "data": [
    {"smiles": "CC[C@H](C)[C@H](NC(=O)[C@H](CCSC)NC=O)C(=O)N[C@@H](Cc1ccccc1)C(=O)N[C@@H](CC(C)C)C(=O)NCC(=O)NCC(=O)N[C@@H](CCCCNC(=O)CCOCCOCCOCCOCCOCCOCCOCCOCCOCCOCCOCCOCCOCCOCCOCCOCCOCCOCCOCCOCCOCCOCCOCCOCCOCCOCCOCCOCCNC(=O)[C@H]1CSSC[C@@H](N)C(=O)N[C@H](CC(=O)O)C(=O)NCC(=O)N[C@@H](Cc2ccc(O)c([N+](=O)[O-])c2)C(=O)NCC(=O)N2C[C@H](O)C[C@H]2C(=O)N[C@@H](CC(N)=O)C(=O)N1)C(=O)N[C@@H](CCCCNC(=O)CCOCCOCCOCCOCCOCCOCCOCCOCCOCCOCCOCCOCCOCCOCCOCCOCCOCCOCCOCCOCCOCCOCCOCCOCCOCCOCCOCCOCCNC(=O)[C@H]1CSSC[C@@H](N)C(=O)N[C@H](CC(=O)O)C(=O)NCC(=O)N[C@@H](Cc2ccc(O)c([N+](=O)[O-])c2)C(=O)NCC(=O)N2C[C@H](O)C[C@H]2C(=O)N[C@@H](CC(N)=O)C(=O)N1)C(=O)O", "note": "[Y9] (I: H-[dC][dD]G[Tyr(3-NO2)]G[Hyp]N[dC][PEG28] / II: H-[dC][dD]G[Tyr(3-NO2)]G[Hyp]N[dC][PEG28] / III: For-MIFLGGKK-OH; disulfide I:1-I:8, II:1-II:8; amide I:C-III:7, II:C-III:8)", "values": [
      {"measurement": "Kd", "setting": "[1]", "value": 0.06, "unit": "µM"},
      {"measurement": "concentration to displace B9-Biotin relative to the monovalent binder", "setting": "HT-29 cells", "value": "four-fold lower"},
      {"measurement": "animals with tumors present after 35 days", "setting": "GPC-16 tumor cells; single dose 200 nmol mixed with 1.6–2 × 10^7 GPC-16 cells and Matrigel, s.c., CPA-treated Dunkin Hartley guinea pigs, control 8 out of 9", "value": "3 out of 10"},
      {"measurement": "reduction of establishment of GPC-16 based tumor", "setting": "GPC-16 tumor cells; single dose treatment during injection of tumor cells, guinea pigs", "value": 67, "unit": "%"},
      {"measurement": "undesired effects in guinea pigs", "setting": "GPC-16 tumor cells; single s.c. dose 200 nmol", "value": "reddening at the injection site"},
      {"measurement": "hematological analysis including differential hemogram of white blood cells", "setting": "Balb/c mice; Balb/c mice, repeated s.c. dosing", "value": "no significant changes"},
      {"measurement": "relative organ weights", "setting": "Balb/c mice; Balb/c mice, repeated s.c. dosing, no histopathological abnormalities or steatosis in liver", "value": "slightly enlarged liver weight"},
      {"measurement": "histopathological effects in organs", "setting": "Balb/c mice; Balb/c mice, s.c. 200 nmol every two days for 14 days, liver, kidney, pancreas, spleen, heart, lung, ovaries, brain, stomach, intestine, mesentery", "value": "No histopathological effects"},
      {"measurement": "histopathological effects in organs", "setting": "Balb/c mice; Balb/c mice, s.c. 400 nmol every two days for 14 days, same organs", "value": "No histopathological effects"},
      {"measurement": "kidney histopathology", "setting": "Balb/c mice; Balb/c mice, s.c. 800 nmol every two days for 14 days", "value": "moderate degenerative changes of the kidney"},
      {"measurement": "draining lymph nodes", "setting": "Balb/c mice; [4]", "value": "mild but significant dose-dependent immune infiltration and lymphoid hyperplasia"},
      {"measurement": "local effects at the injection site", "setting": "Balb/c mice; [4]", "value": "increased neutrophil and monocyte infiltrates at the injection site"},
      {"measurement": "amylase level in serum", "setting": "Balb/c mice; [5]", "value": "significantly increased"},
      {"measurement": "blood urea nitrogen (BUN) level in serum", "setting": "Balb/c mice; [5]", "value": "significantly increased"},
      {"measurement": "cholesterol level in serum", "setting": "Balb/c mice; [5]", "value": "significantly increased"},
      {"measurement": "creatinine (CREA) level in serum", "setting": "Balb/c mice; [5]", "value": "slightly but significant increased"},
      {"measurement": "lipase level in serum", "setting": "Balb/c mice; [5]", "value": "slightly but significant increased"},
      {"measurement": "triglycerides level in serum", "setting": "Balb/c mice; [5]", "value": "significantly increased"},
      {"measurement": "time Y9 remains largely intact", "setting": "[2]", "value": "> 24", "unit": "h"},
      {"measurement": "detection of binder peptide in serum after 24 h", "setting": "[3]", "value": "still detected"},
      {"measurement": "half-life", "setting": "in vivo", "value": "~2", "unit": "h"},
      {"measurement": "level at time molar at 1 h", "setting": "in vivo; 200 nmol", "value": 350, "unit": "nM"},
      {"measurement": "level at time molar at 7 h", "setting": "in vivo; 200 nmol", "value": 75, "unit": "nM"},
      {"measurement": "metabolised at 48 h, 60 µM", "setting": "in vitro", "value": 20, "unit": "%"}
    ]}
  ]
}
